Results reported in ChEMBL document CHEMBL1146394, “New antihepatotoxic cerebroside from Lycium chinense fruits” (1997).

Tests used:
[1] = test system: Hepatocyte; experiment: Antihepatotoxic activity against CCl4-induced cytotoxicity in rat hepatocytes assessed as blockade of glutamic pyruvic transaminase release at 25 uM by Reitman-Frankel method relative to control; type: functional
[2] = test system: Hepatocyte; experiment: Antihepatotoxic activity against CCl4-induced cytotoxicity in rat hepatocytes assessed as blockade of sorbitol dehydrogenase release at 25 uM by modified Gerlach method relative to control; type: functional

| SMILES | Activity [1] [%] | Activity [2] [%] |
| --- | --- | --- |
| CCCCCCCCC/C=C\CC/C=C/[C@@H](O)[C@H](CO[C@@H]1O[C@H](CO)[C@@H](O)[C@H](O)[C@H]1O)NC(=O)C(O)CCCCCCCCCCCCCC (stereo partly specified) | 86.4 | 69.5 |
| CCCCCCCCC/C=C\CC/C=C/[C@@H](O)[C@H](CO[C@@H]1O[C@H](CO)[C@@H](O)[C@H](O)[C@H]1O)NC(=O)CCCCCCCCCCCCCCC | 95.6 | 80.2 |
| COc1cc(C2Oc3cc([C@H]4Oc5cc(O)cc(O)c5C(=O)[C@@H]4O)ccc3OC2CO)ccc1O (stereo partly specified) [SILIBININ] | 76 | 58.9 |
